Results taken from ChEMBL document CHEMBL1201862, “PubChem BioAssay data set” (2004).
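Grown in 96-well plates, cells were treated for 48 hours with each compound at five concentrations. Insufficient inhibition: endpoint recorded as highest concentration tested. At the GI50, growth is halved.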 The source made the active and inactive calls. Rule as the data show it: active = GI50 up to about 1.1 µM and inactive = higher.

Tests used:
Test in all cases: growth of human tumour cells (NCI), 48 h
BT-549 = tested on: BT-549
NCI-H226 = tested on: NCI-H226
MDA-MB-435 = tested on: MDA-MB-435
SW-620 = tested on: SW-620
OVCAR-8 = tested on: OVCAR-8
EKVX = tested on: EKVX
786-0 = tested on: 786-0
IGROV-1 = tested on: IGROV-1
HOP-62 = tested on: HOP-62
COLO 205 = tested on: COLO 205
SF-539 = tested on: SF-539
U-251 = tested on: U-251
OVCAR-5 = tested on: OVCAR-5
UACC-62 = tested on: UACC-62
DU-145 = tested on: DU-145
SK-OV-3 = tested on: SK-OV-3
HCT-116 = tested on: HCT-116
SF-295 = tested on: SF-295
LOX IMVI = tested on: LOX IMVI
CCRF-CEM = tested on: CCRF-CEM

SMILES	GI50 (BT-549)	GI50 (NCI-H226)	GI50 (MDA-MB-435)	GI50 (SW-620)	GI50 (OVCAR-8)	GI50 (EKVX)	GI50 (786-0)	GI50 (IGROV-1)	GI50 (HOP-62)	GI50 (COLO 205)	GI50 (SF-539)	GI50 (U-251)	GI50 (OVCAR-5)	GI50 (UACC-62)	GI50 (DU-145)	GI50 (SK-OV-3)	GI50 (HCT-116)	GI50 (SF-295)	GI50 (LOX IMVI)	GI50 (CCRF-CEM)
CSc1ccc(/C=C2\CNC/C(=C\c3ccc(SC)cc3)C2=O)cc1	> 371 µM (inactive)	40.6 µM (inactive)	> 371 µM (inactive)	> 371 µM (inactive)	52.4 µM (inactive)	> 170 µM (inactive)	29.3 µM (inactive)	> 81.7 µM (inactive)	84.5 µM (inactive)	> 371 µM (inactive)	18.4 µM (inactive)	16.9 µM (inactive)	> 284 µM (inactive)	> 87.5 µM (inactive)	> 371 µM (inactive)	96.8 µM (inactive)	144 µM (inactive)	29.4 µM (inactive)		
CCOC(=O)CC1C(C(=O)OCC)=Cn2c([nH]c3cccc4cccc2c43)=C1C(=O)OCC (stereo unspecified)	> 100 µM (inactive)	> 100 µM (inactive)	54.3 µM (inactive)	> 100 µM (inactive)	> 100 µM (inactive)	> 100 µM (inactive)	> 100 µM (inactive)	> 100 µM (inactive)	> 100 µM (inactive)	> 100 µM (inactive)		> 100 µM (inactive)	> 100 µM (inactive)	> 100 µM (inactive)	> 100 µM (inactive)	> 100 µM (inactive)	> 100 µM (inactive)	> 100 µM (inactive)	> 100 µM (inactive)	> 100 µM (inactive)
O=C1C(Sc2ccc3ccccc3c2)=C(Sc2ccc3ccccc3c2)C(=O)c2ccccc21	12 µM (inactive)	13.9 µM (inactive)	17.7 µM (inactive)	4.8 µM (inactive)	10.5 µM (inactive)	10.5 µM (inactive)	12.7 µM (inactive)		13.1 µM (inactive)	3.95 µM (inactive)	10.2 µM (inactive)	6.21 µM (inactive)	11.3 µM (inactive)	3.24 µM (inactive)	22 µM (inactive)	22.7 µM (inactive)	7.59 µM (inactive)		11.4 µM (inactive)	
CC(C)(C)c1cc(C=C(C#N)C#N)cc(C(C)(C)C)c1O [TYRPHOSTIN A9]	0.316 µM (active)	1.34 µM (inactive)	0.76 µM (active)	0.546 µM (active)	0.303 µM (active)		0.652 µM (active)	0.682 µM (active)	0.405 µM (active)		0.259 µM (active)	0.692 µM (active)	4.03 µM (inactive)	0.328 µM (active)	0.372 µM (active)		0.277 µM (active)	0.455 µM (active)	0.641 µM (active)	0.33 µM (active)
CC(=O)OCCOCn1c2c(c(=S)[nH]c1=O)CCC2	> 100 µM (inactive)	> 100 µM (inactive)	> 100 µM (inactive)	> 100 µM (inactive)	> 100 µM (inactive)	> 100 µM (inactive)	93.8 µM (inactive)	> 100 µM (inactive)	> 100 µM (inactive)	> 100 µM (inactive)	> 100 µM (inactive)	> 100 µM (inactive)	> 100 µM (inactive)		> 100 µM (inactive)		> 100 µM (inactive)	> 100 µM (inactive)	> 100 µM (inactive)	> 100 µM (inactive)
O=c1oc2c([N+](=O)[O-])cc([N+](=O)[O-])cc2c2ccccc12	59.6 µM (inactive)	> 100 µM (inactive)	> 100 µM (inactive)	> 100 µM (inactive)	> 100 µM (inactive)	> 100 µM (inactive)	> 100 µM (inactive)	> 100 µM (inactive)	> 100 µM (inactive)	> 100 µM (inactive)	> 100 µM (inactive)	> 100 µM (inactive)	> 100 µM (inactive)	> 100 µM (inactive)	> 100 µM (inactive)		> 100 µM (inactive)	> 100 µM (inactive)	> 100 µM (inactive)	> 100 µM (inactive)
NC(=O)CNC(=O)[C@@H]1CC(OCCC(=O)O)CN1C(=O)C1CCCN1C(=O)OCc1ccccc1 (stereo partly specified)	> 100 µM (inactive)	> 100 µM (inactive)	> 100 µM (inactive)	> 100 µM (inactive)	> 100 µM (inactive)	2.74 µM (inactive)	> 100 µM (inactive)	> 100 µM (inactive)	> 100 µM (inactive)	> 100 µM (inactive)		> 100 µM (inactive)	> 100 µM (inactive)	> 100 µM (inactive)	> 100 µM (inactive)	> 100 µM (inactive)	> 100 µM (inactive)	> 100 µM (inactive)	> 100 µM (inactive)	> 100 µM (inactive)
Cc1ccc([N+](=O)[O-])cc1S(=O)(=O)Nc1ccc(C2=NN(S(=O)(=O)c3cc([N+](=O)[O-])ccc3C)C(c3ccccc3)C2)cc1 (stereo unspecified)	21.8 µM (inactive)	54.2 µM (inactive)	36.8 µM (inactive)	50.5 µM (inactive)	42.2 µM (inactive)	28.8 µM (inactive)	39.5 µM (inactive)	29.3 µM (inactive)	35.1 µM (inactive)	27 µM (inactive)		29.8 µM (inactive)	51.2 µM (inactive)	16 µM (inactive)	42.3 µM (inactive)	27.4 µM (inactive)	18.5 µM (inactive)	21.7 µM (inactive)	34.3 µM (inactive)	36.1 µM (inactive)
Cc1nn2c(N)cc(=O)nc2nc1/C=C/c1ccc(N(C)C)cc1	> 32 µM (inactive)	> 66.5 µM (inactive)	7.93 µM (inactive)	> 100 µM (inactive)	> 25.2 µM (inactive)	7.23 µM (inactive)	> 28.8 µM (inactive)	16.6 µM (inactive)	9.55 µM (inactive)	7.74 µM (inactive)		> 22.1 µM (inactive)	17.5 µM (inactive)	5.02 µM (inactive)	> 100 µM (inactive)	> 100 µM (inactive)	12 µM (inactive)	> 79.3 µM (inactive)	4.11 µM (inactive)	< 0.01 µM (active)
COc1c(-c2ccc(F)cc2)oc2c(CC(=O)O)cccc2c1=O	> 100 µM (inactive)	> 100 µM (inactive)	> 100 µM (inactive)		> 100 µM (inactive)	> 100 µM (inactive)	> 100 µM (inactive)	> 100 µM (inactive)	> 100 µM (inactive)	> 100 µM (inactive)	> 100 µM (inactive)	> 100 µM (inactive)	> 100 µM (inactive)	> 100 µM (inactive)	> 100 µM (inactive)	> 100 µM (inactive)	> 100 µM (inactive)	> 100 µM (inactive)		> 100 µM (inactive)
[N-]=[N+]=NC(c1cn(C2CC(O)C(CO)O2)c(=O)[nH]c1=O)C(Cl)I (stereo unspecified)	> 100 µM (inactive)	> 100 µM (inactive)	> 100 µM (inactive)	> 100 µM (inactive)	> 100 µM (inactive)	> 100 µM (inactive)	> 100 µM (inactive)	> 100 µM (inactive)	> 100 µM (inactive)	> 100 µM (inactive)	> 100 µM (inactive)	> 100 µM (inactive)	> 100 µM (inactive)	> 100 µM (inactive)	> 100 µM (inactive)	> 100 µM (inactive)	> 100 µM (inactive)	> 100 µM (inactive)		
